≈ marks a conversion by molar mass, not a printed value. Read-outs that look alike come from different tables or passages of the source.
Tests used:
[1] = Reaction with glutathione, HPLC (Example 26); type: physicochemical; conditions: acetonitrile-phosphate buffer (1:3), 7 days, ambient temperature
Procedure: Formation of glutathione conjugates of licochalcone A. A solution of 1.5 mg of licochalcone A and 100 mg of glutathione in acetonitrile-0.13 M aqueous potassium phosphate buffer solution pH 75 (1:3) was left for 7 days at ambient temperature protected from light.

[2] = Plasma concentration and half live in mice after i.p. injection, HPLC (Example 25); type: in vivo
Procedure: Serum or plasma was diluted with one part of acetonitrile, left for 15 min at 4° C., and centrifugated for 3 min at 10,000 g. An aliquot of the supernatant was chromatographed at 37° C. by HPLC over Spherisorb ODS-2 (5 μm, 120×4.5 mm, Phase Separation LTD, UK) using acetonitrile aqueous acetic acid, 2%, (1:1) as an eluent, flow rate 1.5 ml/min, and UV detection (370 nm and 254 nm).
Standards. Standards containing 14.68 μg/ml, 4.90 μg/ml, and 0.45 μg/ml plasma were freshly prepared every day. The standards were wrapped in tinfoil to avoid light catalyzed isomerization.
A solution of 2,4dimethylnitrobenzene (0.20 μl/ml) was used as an internal standard.
Licochalcone A (10 mg/kg mouse≈200 μg/mouse) was injected i.p. into mice. The mice were sacrificed and bleeded after 15, 30, 60, 120, 240 and 480 min. The plasma was obtained by centrifugation. 100 μl of plasma was added to 100 μl of the solution of the internal standard and the mixture left for 30 min. The mixture was centrifuged for 5 min at 10,000 g and 20 μl of the clear supernatant was analyzed by HPLC (Example 23).

BCG = type: cell-based; conditions: n = 3
human PMN = assay: Zymosan-enhanced chemiluminescence, PMN; type: cell-based; conditions: read-out: percentage inhibition of chemiluminescence response to opsonized zymosan (mean ± SEM)
Procedure: Chemiluminescence. Monocytes were prepared from heparinized blood by metrizoate sodium-Ficoll (the same as lymphocyte proliferation). Polymorphonuclear leucocytes (PMN) were prepared from heparinized blood by dextran sedimentation and metrizoate sodium-Ficoll separation. Remaining erythrocytes were removed by hypotonic lysis. A zymosan-enhanced chemiluminescence assay was used. The assay was performed in a total volume of 5.5 ml at ambient temperature in glass scintillation vials. A Beckman L 8000 scintillation counter (placed under air-conditioned, thermostat controlled, 21±1° C. conditions) was used in the out-of-coincidence mode A 1.1 ml portion of PMN or monocyte suspension (1×10^6 cells per ml) was pre-incubated with 1.1 ml of various concentrations of licochalcone A for 30 min at 37° C. in a rotor at 20 rpm Luminol (5-amino-2,3-dihydro-1,4-phatalazinedione) obtained from Sigma Chemical Co., St Louis, Mo., U.S.A., was maintained as a stock solution of 10 mg/ml in NaOH (0.1 N) and diluted in Krebs-Ringer solution immediately before use. Each vial contained 5×10^5 pre-incubated PMN or monocyte, 4 mg of opsonized zymosan (Sigma), 50 μl of luminol solution, and 4.45 ml of Krebs-Ringer solution containing 5 mM glucose. The final concentration of luminol in the assay mixture was 5×10^−8m.

[3] = tested on: chloroquine resistant P. falciparum DD2 strain; assay: In vitro growth of P. falciparum DD2, 3H-hypoxanthine uptake (Example 15); type: cell-based, Plasmodium falciparum; conditions: for Growth in % of control (mean ± SEM): title: percentage inhibition of 3H-hypoxanthine uptake
[4] = Toxicity study in mice, i.v. and oral (Example 21); type: in vivo, NMRI female mice
Procedure: Drug. Licochalcone A solution was prepared as follows: 20 mg of licochalcone A was dissolved in 0.2 ml of ethanol. 60 mg of melted polyoxyethylene (23)lauryletherb (Brij 35) was added. 1.7 ml of phosphate buffer was then added while stirring on a warm plate. pH in the licochalcone A solution was adjusted to 7.3.
Mice. NMRI female mice (30-35 gram) in groups of 4 each were used for these studies. For the oral route experiment, the animals were fasted for 16 hrs with access to drinking water. Licochalcone A was suspended in 2% carboxymethylcellulose in water. This suspension was available for the mice in an amount of 0.1 ml per 10 gram body weight. The animals were observed every day for 7 days. For the intravenous injection experiment the animals were not fasted. Licochalcone A in solution (20 mg/ml) prepared as mentioned above was injected intravenously 0.1 ml per 10 gram body weight over a period of one hour and again 24 hrs later.

[5] = tested on: chloroquine-sensitive P. falciparum 3D7A strain; assay: In vitro growth of P. falciparum 3D7A, 3H-hypoxanthine uptake (Example 15); type: cell-based, Plasmodium falciparum; conditions: for Percentage inhibition of 3H-hypoxanthine uptake (mean ± SEM): title: percentage inhibition of 3H-hypoxanthine uptake
M. bovis = type: cell-based; conditions: n = 8
[6] = Toxicity study in rats, peroral (Example 21); type: in vivo
Procedure: Study in rats. To 4 rats was administered one dose of 1000 mg per kg body weight perorally.

L. donovani = L. donovani infection in hamsters (Example 9); type: in vivo, syrian golden hamsters (Mesocricetus auratus); conditions: i.p. 10 mg per kg two times per day for 7 days
L. major promastigotes = assay: In vitro growth of L. major promastigotes, 3H-thymidine uptake (Example 4); type: cell-based, Leishmania major; conditions: Leishmania major; for IC50: read-out: concentration for 50% inhibition; for inhibition at 1 µg/mL: 1 μg/ml; for inhibition at 2 µg/mL: 2 μg/ml; for inhibition at 5 µg/mL: 5 μg/ml; for inhibition at 10 µg/mL: 10 μg/ml; for inhibition at 20 µg/mL: 20 μg/ml
[7] = read-out: percentage inhibition of 3H-thymidine uptake (mean ± SEM), 3-day culture
[8] = read-out: percentage inhibition of 3H-thymidine uptake (mean ± SEM), 6-day culture

With C=CC(C)(C)c1cc(/C=C/C(=O)c2ccc(O)cc2)c(OC)cc1O [Licochalcone A, licochalcone A] the reaction with glutathione [1] was “decreased amounts of licochalcone A and appearance of two new peaks”, the plasma concentration ([2]; 10 mg/kg i.p., after 120 min) was “below det. limit” and the plasma concentration ([2]; 10 mg/kg i.p., after 240 min) was “below det. limit”. For the same compound, the plasma concentration ([2]; 10 mg/kg i.p., after 480 min) was “below det. limit”, the “metabolites in mouse plasma” value ([2]; HPLC) was “Three metabolites have been detected” and the concentration at 15 min ([2]; mouse, plasma, intraperitoneal, 10 mg/kg i.p., after 15 min) was 1330 ng/mL. For the same compound, the concentration at 30 min ([2]; mouse, plasma, intraperitoneal, 10 mg/kg i.p., after 30 min) was 280 ng/mL, the concentration at 60 min ([2]; mouse, plasma, intraperitoneal, 10 mg/kg i.p., after 60 min) was 140 ng/mL and the meanMIC (BCG) was “meanMIC = 8.6 μg/ml”. The “meanMIC (second line)” value (BCG) was “meanMIC = 40 μg/ml (n = 3)”, the rangeMIC (BCG) was “rangeMIC = 5-10 /ml (n = 3)” and the inhibition at 1 µg/mL (human PMN; 1 μg/ml) was 2.1 ± 3.3%. For the same compound, the inhibition at 2 µg/mL (human PMN; 2 μg/ml) was 10.3 ± 3.3%, the inhibition at 5 µg/mL (human PMN; 5 μg/ml) was 18.9 ± 3.7% and the inhibition at 10 µg/mL (human PMN; 10 μg/ml) was 29.7 ± 4.8%. The inhibition at 20 µg/mL (human PMN; 20 μg/ml) was 47 ± 4.3%, the IC50 ([3]; Plasmodium falciparum, DD2, read-out: concentration in which parasite growth was retarded by 50%) was 0.5 to 1 µg/mL (≈ 1.48 to 2.96 µM) and the “Growth in % of control (mean ± SEM)” value ([3]; 0.1 μg/ml) was 5.0 ± 2.0%. The “Growth in % of control (mean ± SEM)” value ([3]; 0.5 μg/ml) was 41.0 ± 4.0%, the “Growth in % of control (mean ± SEM)” value ([3]; 1 μg/ml) was 66.0 ± 3.0% and the “Growth in % of control (mean ± SEM)” value ([3]; 5 μg/ml) was 98.0 ± 1.0%. For the same compound, the “Growth in % of control (mean ± SEM)” value ([3]; 10 μg/ml) was 99.0 ± 0.0001%, the “No. dead (after 7 days)” value ([4]; 1000 mg/kg perorally, groups of 4) was 0 (after 7 days) and the “No. dead (after 1 hr)” value ([4]; i.v. 20 mg/kg, groups of 4) was 0. For the same compound, the “No. dead (after 1 hr)” value ([4]; i.v. 50 mg/kg, groups of 4) was 1, the “No. dead (after 1 hr)” value ([4]; i.v. 60 mg/kg, groups of 4) was 4 and the “No. dead (after 1 hr)” value ([4]; i.v. 100 mg/kg, groups of 4) was 4. The “Approximate LD50 i.v.” value ([4]; mice) was about 55 mg per kg body weight, the IC50 ([5]; Plasmodium falciparum, read-out: concentration in which growth was retarded by 50%) was 0.5 to 1 µg/mL (≈ 1.48 to 2.96 µM) and the “Percentage inhibition of 3H-hypoxanthine uptake (mean ± SEM)” value (from here on “Percentage inhibition … (mean ± SEM)”) ([5]; 0.1 μg/ml) was 15.0 ± 3.0%. For the same compound, the “Percentage inhibition … (mean ± SEM)” value ([5]; 0.5 μg/ml) was 39.0 ± 6.0%, the “Percentage inhibition … (mean ± SEM)” value ([5]; 1 μg/ml) was 69.0 ± 4.0% and the “Percentage inhibition … (mean ± SEM)” value ([5]; 5 μg/ml) was 98.0 ± 0.001%. For the same compound, the “Percentage inhibition … (mean ± SEM)” value ([5]; 10 μg/ml) was 98.0 ± 0.0001%, the meanMIC (M. bovis) was “meanMIC = 15.7 μg/ml” and the rangeMIC (M. bovis) was “rangeMIC = 10-20 μg/ml (n = 8)”. For the same compound, the “deaths within one week” value ([6]; 4 rats, one dose of 1000 mg per kg perorally) was “None of the animals died”, the LD50 peroral ([6]; rats) was over 1000 mg per kg and the “parasite load in the liver and the spleen” value (L. donovani) was “reduced to almost undetectable levels”. For the same compound, the IC50 (L. major promastigotes; log phase promastigotes) was 2 to 5 µg/mL (≈ 5.91 to 14.8 µM), the inhibition at 1 µg/mL (L. major promastigotes; [7]) was 3.6 ± 11.5% and the inhibition at 2 µg/mL (L. major promastigotes; [7]) was 14.8 ± 21.5%. It also gave an inhibition at 5 µg/mL (L. major promastigotes; [7]) of 63.9 ± 13%, an inhibition at 10 µg/mL (L. major promastigotes; [7]) of 91.9 ± 8.4% and an inhibition at 20 µg/mL (L. major promastigotes; [7]) of 96 ± 7.5%. The inhibition at 1 µg/mL (L. major promastigotes; [8]) was 15.8 ± 16.5%, the inhibition at 2 µg/mL (L. major promastigotes; [8]) was 42.6 ± 19.7% and the inhibition at 5 µg/mL (L. major promastigotes; [8]) was 80.7 ± 6.4%. For the same compound, the inhibition at 10 µg/mL (L. major promastigotes; [8]) was 96.4 ± 1.2%, the inhibition at 20 µg/mL (L. major promastigotes; [8]) was 99.4 ± 1.1% and the IC50 (L. major promastigotes; stationary phase promastigotes) was about 2 µg/mL (≈ 5.91 µM).

From US6603046B1, “Bis-aromatic a,β-unsaturated ketones” (Lica Pharmaceuticals A/S, priority 1992, dated 2003)
